From patent publication US20100081693A1, “T[…] AND USE THEREOF” (priority 2006, published 2010)
Where two headings read alike, the source gives them in different places.

Tests used:
Format in all cases: in vivo
[1] = system: tobacco whitefly; assay: Test Example 3: spray test on tobacco whitefly larvae on cabbage; settings: 168 h, sprayed on cabbage at 20 ml/cup, hatched larvae, seven days after spraying, read-out: Controlling value (%)
[2] = system: Tetranychus urticae; assay: Test Example 4: spray test on Tetranychus urticae on vineless common bean; settings: 192 h, read-out: Controlling rate (%)
Procedure: Each of present compounds (1) to (3), (5), (17), (39), (55) to (57), (120) to (124), (129), (130), (135), (136), (139) to (141), (232), (236), (243), (255), (262), and the comparative compound (A) was formulated into a preparation according to Preparation Example 5. This preparation was diluted with water so that the concentration of the present compound or the comparative compound (A) became 500 ppm.
Meanwhile, about 60 Tetranychus urticae female imagoes were released on a vineless common bean plantlet (7 days after seeding, first leaf development phase) planted in a plastic cup, which was allowed to stand for 1 day. To this plantlet was sprayed 20 ml of each of the above diluted solutions.
Eight days after spraying, the number of surviving mites on a leaf of the vineless common bean was investigated, and a controlling rate was calculated according to the following equation.
Controlling rate (%)=100×{1−(number of surviving mites of treated group)/(number of surviving mites of non-treated group)}

[3] = system: cotton aphids; assay: Test Example 2: soil immersion treatment of cucumber, cotton aphids inoculated afterwards; settings: 144 h, 500 ppm test solution (5 ml + 40 ml water), aphids inoculated after 7 days, counted 6 days later, 25° C., read-out: Controlling value (%)
Procedure: Into a beer cup were poured 5 ml of the test diluted solution and 40 ml of water, where a cucumber planted in a polyethylene cup and grown to develop a first true leaf was accommodated, and the soil part was subjected to immersion-treatment. The plant was retained in a greenhouse at 25° C. for 7 days, 30 cotton aphids (all stages) were inoculated on a cucumber leaf surface, the plant was further retained in a greenhouse at 25° C. for 6 days, the number of surviving worms of cotton aphids parasitized on the leaf surface was investigated, and a controlling value was calculated according to the following equation.
(§1) Controlling value (%)={1−(Cb×Tai)/(Cai×Tb)}×100
(§2) Cb is the number of worms before treatment of a non-treated group.
(§3) Cai is the number of worms at observation of a non-treated group.
(§4) Tb is the number of worms before treatment of a treated group.
(§5) Tai is the number of worms at observation of a treated group.

[4] = system: cotton aphids; assay: Test Example 1: spray test on cotton aphids parasitized on cucumber; settings: 144 h; 500 ppm active ingredient, sprayed on cucumber at 20 ml/cup, six days after spraying; read-out: Controlling value (%)
Procedure: On the other hand, a cucumber was planted in a polyethylene cup, and grown until a first true leaf was developed, and 30 cotton aphids were parasitized thereon. One day after, the test spray solution was sprayed to the cucumber at a ratio of 20 ml/cup. Six days after spraying, the number of cotton aphids was investigated, and a controlling value was calculated according to the following equation.
as §1, §2, §3, §4, §5

[5] = 500 ppm, 20 ml sprayed on common bean plantlet, female imagoes, eight days after spraying

| SMILES | pest or weed control at 500 ppm [1] [%] | pest or weed control at 500 ppm [3] [%] | also measured |
| --- | --- | --- | --- |
| CCCCOc1nc(SC(=O)N(C)C)ns1 [(5)] | ≥ 90 | – | pest or weed control at 500 ppm [2, 5]: ≥ 90% |
| C#CCOc1nc(SC(=O)N(C)C)ns1 [(7)] | ≥ 90 | – | – |
| CC#CCOc1nc(SC(=O)N(C)C)ns1 [(8)] | ≥ 90 | – | – |
| CN(C)C(=O)Sc1nsc(OC2CCOCC2)n1 [(17)] | ≥ 90 | ≥ 90 | pest or weed control at 500 ppm [2, 5]: ≥ 90% |
| CN(C)C(=O)Sc1nsc(OCCCn2cccn2)n1 [(19)] | – | ≥ 90 | – |
| CN(C)C(=O)Sc1nsc(OCC(C)(C)C)n1 [(31)] | ≥ 90 | – | – |
| CN(C)C(=O)Sc1nsc(OCCC(C)(C)C)n1 [(33)] | – | – | pest or weed control at 500 ppm [4]: ≥ 90% |
| C=CCCCOc1nc(SC(=O)N(C)C)ns1 [(34)] | ≥ 90 | ≥ 90 | pest or weed control at 500 ppm [4]: ≥ 90% |
| C#CCC(C)Oc1nc(SC(=O)N(C)C)ns1 (stereo not shown) [(38)] | ≥ 90 | – | – |
| C#CC(C)Oc1nc(SC(=O)N(C)C)ns1 (stereo not shown) [(39)] | ≥ 90 | – | pest or weed control at 500 ppm [2, 5]: ≥ 90% |
| CN(C)C(=O)Sc1nsc(OCCCCl)n1 [(49)] | ≥ 90 | ≥ 90 | – |
| CN(C)C(=O)Sc1nsc(OCCCCCl)n1 [(50)] | – | ≥ 90 | – |
| CN(C)C(=O)Sc1nsc(OCC(C)(C)CCl)n1 [(52)] | ≥ 90 | – | – |
| CN(C)C(=O)Sc1nsc(OCC(F)(F)C(F)(F)F)n1 [(59)] | ≥ 90 | ≥ 90 | pest or weed control at 500 ppm [4]: ≥ 90% |
| CC(Oc1nc(SC(=O)N(C)C)ns1)C(F)(F)C(F)(F)F (stereo not shown) [(61)] | ≥ 90 | ≥ 90 | pest or weed control at 500 ppm [4]: ≥ 90% |
| CN(C)C(=O)Sc1nsc(OCC(F)(F)C(F)(F)C(F)(F)F)n1 [(62)] | – | ≥ 90 | pest or weed control at 500 ppm [4]: ≥ 90% |
| CCC(Oc1nc(SC(=O)N(C)C)ns1)C(C)(C)C (stereo not shown) [(64)] | – | – | pest or weed control at 500 ppm [4]: ≥ 90% |
| CN(C)C(=O)Sc1nsc(OCCCl)n1 [(67)] | ≥ 90 | – | – |
| CN(C)C(=O)Sc1nsc(OCc2ccsc2)n1 [(74)] | – | – | pest or weed control at 500 ppm [4]: ≥ 90% |
| CN(C)C(=O)Sc1nsc(OCc2cccc(F)c2)n1 [(79)] | – | ≥ 90 | – |
| CN(C)C(=O)Sc1nsc(OCc2cccc(Cl)c2Cl)n1 [(99)] | – | – | pest or weed control at 500 ppm [4]: ≥ 90% |
| CN(C)C(=O)Sc1nsc(OCc2c(Cl)cccc2Cl)n1 [(102)] | – | – | pest or weed control at 500 ppm [4]: ≥ 90% |
| CN(C)C(=O)Sc1nsc(OCc2ccc(Cl)c(Cl)c2)n1 [(103)] | – | – | pest or weed control at 500 ppm [4]: ≥ 90% |
| CN(C)C(=O)Sc1nsc(OCc2ccc(F)c(C(F)(F)F)c2)n1 [(111)] | ≥ 90 | – | – |
| CN(C)C(=O)Sc1nsc(OCc2ccc(C(F)(F)F)cc2C(F)(F)F)n1 [(112)] | ≥ 90 | – | – |

| SMILES | pest or weed control at 500 ppm [1] [%] | pest or weed control at 500 ppm [3] [%] | also measured |
| --- | --- | --- | --- |
| CC1(C)OCC(COc2nc(SC(=O)N3CCOCC3)ns2)O1 (stereo not shown) [(119)] | ≥ 90 | – | – |
| CCCOc1nc(SC(=O)N2CCOCC2)ns1 [(120)] | ≥ 90 | – | – |
| CCOc1nc(SC(=O)N2CCOCC2)ns1 [(122)] | ≥ 90 | – | – |
| CC#CCOc1nc(SC(=O)N2CCOCC2)ns1 [(125)] | – | ≥ 90 | – |
| O=C(Sc1nsc(OCC2CCOC2)n1)N1CCOCC1 (stereo not shown) [(127)] | – | ≥ 90 | – |
| O=C(Sc1nsc(OCC2COCO2)n1)N1CCOCC1 (stereo not shown) [(129)] | – | ≥ 90 | pest or weed control at 500 ppm [2, 5]: ≥ 90% |
| O=C(Sc1nsc(OC2COCOC2)n1)N1CCOCC1 [(130)] | – | ≥ 90 | pest or weed control at 500 ppm [2, 5]: ≥ 90% |
| COc1nc(SC(=O)N2CCCC2)ns1 [(135)] | – | – | pest or weed control at 500 ppm [2, 5]: ≥ 90% |
| CCOc1nc(SC(=O)N2CCCC2)ns1 [(136)] | – | – | pest or weed control at 500 ppm [2, 5]: ≥ 90% |
| O=C(Sc1nsc(Cl)n1)N1CCCC1 [(147)] | – | ≥ 90 | – |
| CCOC(CCOc1nc(SC(=O)N(C)C)ns1)OCC [(201)] | ≥ 90 | ≥ 90 | pest or weed control at 500 ppm [4]: ≥ 90% |
| CN(C)C(=O)Sc1nsc(OCCCOc2nc(SC(=O)N(C)C)ns2)n1 [(204)] | – | – | pest or weed control at 500 ppm [4]: ≥ 90% |
| CN(C)C(=O)Sc1nsc(OCCCCOc2nc(SC(=O)N(C)C)ns2)n1 [(206)] | ≥ 90 | – | – |
| CN(C)C(=O)Sc1nsc(OCc2ccccc2)n1 [(211)] | ≥ 90 | – | pest or weed control at 500 ppm [4]: ≥ 90% |
| CN(C)C(=O)Sc1nsc(OCc2ccccn2)n1 [(215)] | ≥ 90 | – | – |
| Cc1nn(C)c(Oc2nc(SC(=O)N(C)C)ns2)c1C [(218)] | – | ≥ 90 | – |
| CN(C)C(=O)Sc1nsc(OCCOc2nc(SC(=O)N(C)C)ns2)n1 [(225)] | – | – | pest or weed control at 500 ppm [4]: ≥ 90% |
| CN(C)C(=O)Sc1nsc(OCCOCC(F)(F)F)n1 [(232)] | – | – | pest or weed control at 500 ppm [2, 5]: ≥ 90% |
| COCC(C)Oc1nc(SC(=O)N(C)C)ns1 (stereo not shown) [(236)] | – | – | pest or weed control at 500 ppm [2, 5]: ≥ 90% |
| COCCOc1nc(SC(=O)N2CCCC2)ns1 [(243)] | – | – | pest or weed control at 500 ppm [2, 5]: ≥ 90% |
| C=CCOc1nc(SC(=O)N(C)C)ns1 [(255)] | – | – | pest or weed control at 500 ppm [2, 5]: ≥ 90% |
| C[C@H](Oc1nc(SC(=O)N2CCCC2)ns1)[C@H]1COC(C)(C)O1 [(262)] | – | – | pest or weed control at 500 ppm [2, 5]: ≥ 90% |
| COCC(COc1nc(SC(=O)N(C)C)ns1)OC (stereo not shown) [(277)] | – | ≥ 90 | – |
| CCCOc1nc(OC(=O)N(C)C)ns1 [comparative compound (A), reference compound] | 0 | – | pest or weed control at 500 ppm [2]: 0% |
